Here are results for three sequences from US10450358 (dated 2019).

Series [1] can be described thus: Pichia pastoris GS115 expression culture supernatant (methanol induction), purified protein. Conditions: 28° C., up to 72 hours.
The nature of series [2]: Pichia pastoris GS115 expression culture supernatant (BMMY medium, methanol induction), purified protein. The conditions noted are these: 28° C., up to 72 hours.

For the sequence “AIAEPAMIAECKTRTEVFEISRRLIDPTNANFLVWPPCVEVQRCSGCCNNRNVQCRPTQVQLRPVQVRKIEIVRKKPIFKKATVTLEDHLACKCEAVAAARPVA”, the not cleaved entry in series [1] is reported as “SDS-PAGE result showed that PDGF-M2 is a single band”.
For the sequence “TIAEPAMIAECKTRTEVFEISRRLIDPTNANFLVWPPCVEVQRCSGCCNNRNVQCRPTQVQLRPVQVRKIEIVRKKPIFKKATVTLEDHLACKCEAVAAARPVA”, the not cleaved entry in series [1] was “only single band could be detected after the two mutants were reduced (WB)”.
With “TIAEPAMIAECKTRTEVFEISRRLIDRTNANFLVWPPCVEVQRCSGCCNNRNVQCRPTQVQLRPVQVRKIEIVRKKPIFKKATVTLEDHLACKCETVAAARPVT”, the cleaved bond result in series [2] was “Arg32-Thr33”.
